Test results as given in patent US20200093835A1, “METHODS OF TREATING VESTIBULAR SCHWANNOMA” (Massachusetts Eye and Ear Infirmary, priority 2017, published 2020).

What was measured:
[1] = system: HEI-193 human schwannoma cells; experiment: Metabolic activity (MTT) assay, HEI-193; type: cell-based; details: for HEI-193 cell metabolic activity: 72 h; for metabolic activity of HEI-193 cells: preliminary testing, clinically reasonable concentrations
Experimental: (§1) HEI-193 cells are derived from a patient with sporadic bilateral vestibular schwannomas and a history of meningioma; these cells express a splice variant of the merlin protein (encoded by the NF2 gene), but neither typical isoform^52. HEI-193 cells were cultured in DMEM/F12-containing medium with 10% fetal bovine serum and 1% penicillin and streptomycin mix as described above. Immortalized NF2-null and NF2-expressing arachnoid AC-CRISPR cell lines derived from primary human autopsy specimens were obtained via generous gift from Dr. Vijaya Ramesh at Massachusetts General Hospital^40. NF2-null and NF2-expressing arachnoid cells were cultured in DMEM with 15% fetal bovine serum and 1% penicillin and streptomycin mix. All cell lines were maintained in an incubator at 37 degrees Celsius with 5% carbon dioxide and treated with drugs 24-36 hours after seeding at between 15,000-25,000 cells per well in 24-well plates. Phase contrast photos of healthy and drug-treated cultures were taken at 10× magnification on an IncuCyte S3 instrument (Essen Bio).
Cultures were incubated with drug-containing medium or 0.1% DMSO vehicle for 72 hours and then processed for downstream applications.
The metabolic activity of primary VS and HEI-193 cells was assessed using the colorimetric 3-(4,5-dimethylthiazol-2-yl)-2,5-diphenyltetrazolium bromide (MTT) assay (Life Technologies). After 72-hour incubation of cells in a 24-well plate with medium containing drug or vehicle, culture medium was replaced with 362 μL of colorless DMEM and 38 μL of 12 mM MTT in 3-6 random wells. Cells were incubated for an additional 4 hours. The resulting formazan crystals were dissolved in 380 μL of a solution of 100 mg/mL sodium dodecyl sulfate in 0.01 M HCl and incubated for another 4 hours. Optical density (OD) at 570 nm of each well was detected using a spectrophotometer. The average OD value of cells exposed to vehicle (0.1% DMSO) was set to 100% and used to normalize OD values of cells treated with drugs; metabolic activity was then reported as percent change. Statistical testing was performed on raw OD values (see Statistical Methods).

primary VS cells = experiment: Cell death (TUNEL) assay, primary VS cells; type: cell-based, human; details: 25 μM, 72 h
primary human VS cells [2] = experiment: Proliferation assay (BrdU incorporation), primary VS cells
primary human VS cells [3] = experiment: Metabolic activity (MTT) assay, primary VS cells; type: cell-based
Experimental: Written informed consent was obtained from all subjects prior to inclusion in this study and all procedures were conducted in accordance with the Helsinki Declaration of 1975. Detailed methods for human surgical specimen collection, processing, and culture are previously published^38. VS specimens were harvested from patients undergoing surgical tumor resection, and GAN specimens from healthy patients undergoing benign parotidectomy or neck dissection surgery, during which the GAN is routinely sacrificed. Patients who had received radiation therapy prior to surgery were excluded.
Briefly, after surgical resection, VS or GAN tissue was immediately placed in saline solution and transported to the laboratory on ice. Specimens were rinsed with Hank's Balanced Salt Solution (HBSS, ThermoFisher Scientific), dissected to remove burned tissue and blood vessels, and separated for RNA preservation (RNALater, ThermoFisher Scientific) or primary cell culture. […]
(§2) The metabolic activity of primary VS and HEI-193 cells was assessed using the colorimetric 3-(4,5-dimethylthiazol-2-yl)-2,5-diphenyltetrazolium bromide (MTT) assay (Life Technologies). […] Optical density (OD) at 570 nm of each well was detected using a spectrophotometer. […]

HEI-193 cells [4] = experiment: Flow cytometry, annexin V/propidium iodide staining; type: cell-based, human; details: 35 μM, 72 h, versus vehicle
Experimental: Apoptotic cell death was assessed using an Annexin V/propidium iodide (PI) staining kit (Miltenyi Biotec). […] Adherent cells were collected by trypsinization, and non-adherent (floating) cells were collected from culture medium. Cells were centrifuged, washed in PBS, and incubated in 1× annexin binding buffer, annexin V-fluorescein isothiocyanate (FITC), and propidium iodide (PI) according to the manufacturer's recommendations. Stained cells were immediately analyzed using a Cytomics FC500 flow cytometer. Data were analyzed using CXP Analysis software (version 2.2, Coulter).

[5] = system: AC-CRISPR NF2(−/−) and AC-CRISPR NF2(+/+) human arachnoid cells; experiment: Metabolic viability, arachnoid cells versus schwannoma cells; type: cell-based
Experimental: as §1, §2

HEI-193 cells [6] = experiment: Proliferation assay (BrdU incorporation), HEI-193; type: cell-based, human; details: 35 μM, 72 h; p=0.0007
Experimental: 5′bromo-2′-deoxyuridine (BrdU) was added to label proliferating cells in culture 2 hours before fixation in 4% formalin (paraformaldehyde). Cell membranes were permeabilized with 10 minutes of incubation in 1% Triton X-100 and nuclear membranes with 20 minutes in 2N hydrochloric acid (HCl). Cells were blocked in 5% normal horse serum (NHS) and 1% Triton X-100 and incubated with a primary antibody against BrdU (# OBT0030G, AbD Serotec) overnight, followed by incubation with fluorescent anti-rat immunoglobulin G (AlexaFluor, Life Technologies).

HEI-193 cells [7] = experiment: TUNEL assay, HEI-193; type: cell-based, human; details: 72 h, versus vehicle
HEI-193 cells [8] = experiment: ELISA for progesterone in conditioned cell culture medium; type: cell-based, human; details: 35 μM versus 0.1% DMSO vehicle; p=0.08
Experimental: Cell-conditioned medium was collected from mifepristone-treated and untreated HEI-193 cells after 72-hour incubation with the drug. Enzyme-linked immunosorbent assay (ELISA) was performed on each sample in triplicate to assess the quantity of progesterone in cell-conditioned medium, according to the manufacturer's protocol (Enzo Life Science, # ADI-900-011). Data were analyzed using GraphPad Prism 7 software licensed through Harvard Medical School.

[9] = in vivo; cited from earlier work
primary human VS cells [10] = experiment: Cytotoxicity assay (IncuCyte Cytotox Reagent), primary VS cells; type: cell-based; details: 35 μM, 72 hours, live cell fluorescence microscopy
Experimental: Cytotoxicity and cell confluence were measured using live-cell, time-lapse phase contrast and fluorescence imaging acquired at 10× by an IncuCyte S3 instrument (Essen Bioscience). Cytotoxicity was measured by incorporation of IncuCyte Cytotox Reagent (Essen Bioscience), applied according to manufacturer's instructions; the reagent fluoresces when it binds DNA after compromise of membrane integrity. Nine images were acquired per well every 2 hours for 72 hours, and cytotoxicity at each time point is reported as number of fluorescent objects per well, after thresholding to avoid the inclusion of small cellular debris. Phase object confluence was measured using time-lapse phase contrast imaging acquired at 10× by the same instrument, analyzing 9 images per well every 2 hours for 72 hours, and is reported as percent confluence per square millimeter.

HEI-193 cells [11] = experiment: Phalloidin staining of f-actin, HEI-193; type: cell-based, human; details: 35 μM, 72 hours
HEI-193 cells [12] = experiment: Caspase 3/7 activation by live-cell imaging, HEI-193; type: cell-based, human; details: 70 μM and 35 μM, over 100 h, versus vehicle
HEI-193 cells [13] = experiment: Cell confluence and phase contrast imaging (IncuCyte), HEI-193; type: cell-based, human
Experimental: as §1, with “All cell lines were maintained in an incubator at 37 degrees Celsius with 5% carbon dioxide and treated with drugs 24-36 hours after seeding at between 15,000-25,000 cells per well in 24-well plates. Phase contrast photos of healthy and drug-treated cultures were taken at 10× magnification on an IncuCyte S3 instrument (Essen Bio).” left out
Cytotoxicity and cell confluence were measured using live-cell, time-lapse phase contrast and fluorescence imaging acquired at 10× by an IncuCyte S3 instrument (Essen Bioscience). Cytotoxicity was measured by incorporation of IncuCyte Cytotox Reagent (Essen Bioscience), applied according to manufacturer's instructions; the reagent fluoresces when it binds DNA after compromise of membrane integrity. […] Phase object confluence was measured using time-lapse phase contrast imaging acquired at 10× by the same instrument, analyzing 9 images per well every 2 hours for 72 hours, and is reported as percent confluence per square millimeter.

unresectable meningioma = details: cited from earlier work
HEI-193 cells [14] = experiment: Cell cycle analysis; type: cell-based, human; details: 72 h treatment
Experimental: Harvested HEI-193 cells were washed in PBS and fixed in cold 70% ethanol at −20° C. for 18-72 h. Before staining with propidium iodide (PI), cells were centrifuged and washed again in cold PBS. 2×10^6 or fewer cells were incubated with 500 μl staining solution [0.1% Triton X-100 (Sigma), 2 mg/ml RNase A (Qiagen), and 1 μg/ml PI (Miltenyi Biotec) in PBS] for 15 minutes at 37° C. In order to exclude DNAse activity, RNase A was boiled for 5 minutes and cooled down before its addition to staining solution. Cells were analyzed on a Cytomics FC500 flow cytometer using CXP Analysis software (version 2.2, Coulter).

[15] = system: primary human Schwann cells; experiment: Metabolic activity (MTT) assay, primary Schwann cells; type: cell-based; details: p=0.23

C[C@H]1C[C@@H]2[C@H]([C@@H](O)C[C@@]3(C)[C@H]2CC[C@]3(O)C(=O)CO)[C@@]2(C)C=CC(=O)C=C12 [methylprednisolone]
HEI-193 cell metabolic activity ([1]; 27 μM): no significant effect
metabolic activity of HEI-193 cells [1]: no effect

C[C@]12C=CC(=O)C=C1CC[C@@H]1[C@@H]2[C@@H](O)C[C@@]2(C)[C@H]1CC[C@]2(O)C(=O)CO [prednisolone]
elevation in cell death among primary VS cells versus vehicle (primary VS cells): 15.85%
proliferation of primary VS cells (primary human VS cells [2]; 25 μM, 72 h): no effect
HEI-193 cell metabolic activity ([1]; 25 μM): no significant effect
metabolic activity of primary VS cells (primary human VS cells [3]; 25 μM, 72 h): modest effect

O=C(O)[C@@H](S)[C@@H](S)C(=O)O [succimer]
HEI-193 cell metabolic activity ([1]; 25, 50, and 100 μM): no significant effect
metabolic activity of HEI-193 cells [1]: no effect

CC#C[C@]1(O)CC[C@H]2[C@@H]3CCC4=CC(=O)CCC4=C3[C@@H](c3ccc(N(C)C)cc3)C[C@@]21C [mifepristone, 11β-(4-dimethylaminophenyl)-17β-hydroxy-17α-(1-propynyl)-estra-4,9-dien-3-one]
BrdU incorporation in primary VS cells (primary human VS cells [2]; 35 μM, p=0.0002): significant decline
metabolic viability of HEI-193 cells ([1]; MTT, 72 h in culture, vehicle vs 35 μM p=0.006): decreases with increasing concentration
early apoptotic cells (annexin V/propidium iodide) (HEI-193 cells [4]): slight but not significant increase
metabolic viability, schwannoma cells compared with arachnoid cells [5]: reduces the metabolic viability of schwannoma cells more significantly
percentage of BrdU+ HEI-193 cells (HEI-193 cells [6]): significantly declines
number of TUNEL positive cells (HEI-193 cells [7]): no statistically significant difference
metabolic activity of primary VS cells (primary human VS cells [3]; MTT, ten tumors, vehicle vs 35 μM p=0.002): declines with increasing concentrations
progesterone in culture medium (HEI-193 cells [8]): increase in progesterone in culture medium
blood-brain barrier crossing [9]: able to cross the blood-brain barrier
cytotoxicity of VS cells (primary human VS cells [10]): significant increase
f-actin morphology (phalloidin staining) (HEI-193 cells [11]): crumpled f-actin morphology
caspase 3/7 activity (HEI-193 cells [12]): slight but not significant elevation
phase object confluence (HEI-193 cells [13]; 35 μM, 72 hours): remains constant
cell shape under treatment (HEI-193 cells [13]; phase contrast, FIG. 2C): long, thin, spindle-like shape
outcome versus placebo (unresectable meningioma; double-blind, randomized Phase III trial of 164 patients): no difference between treatment and placebo
patients with minor responses resulting in clinical benefit (unresectable meningioma; long-term clinical trial, unresectable meningioma): eight of 28
phase of cell cycle (HEI-193 cells [14]): no significant differences
metabolic viability of primary human Schwann cells [15]: does not adversely affect

gold sodium thiomalate
HEI-193 cell metabolic activity ([1]; 25, 50, 100, and 300 μM): significant effect on HEI-193 cell metabolic activity, but only at clinically unreasonable concentrations
metabolic activity of HEI-193 cells [1]: no effect

Nc1ncnc2c1ncn2[C@@H]1O[C@H](COP(=O)(O)O)[C@@H](O)[C@H]1O [ADENOSINE MONOPHOSPHATE, ADENOSINE, adenosine monophosphate]
HEI-193 cell metabolic activity ([1]; 5, 10, and 15 μM): no significant effect
metabolic activity of HEI-193 cells [1]: no effect
